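Step 1: Grow cells in 96-well plates. Step 2: Expose to compound for 48 hours at 5 concentrations. Step 3: Interpolate endpoints linearly; if unreached, use highest concentration. The concentration for full growth arrest is given as TGI.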 Where a SMILES comes first, the peptide text is derived from it. The star is where a group is joined. Fmoc = O=C(OCC1c2ccccc2-c2ccccc21)*; OtBu = CC(C)(C)O*
Experiments:
Experiment in all cases: growth of human tumour cells (NCI), 48 h
MALME-3M melanoma = system: MALME-3M melanoma
OVCAR-8 ovarian = system: OVCAR-8 ovarian
HOP-92 NSCLC = system: HOP-92 NSCLC
OVCAR-3 ovarian = system: OVCAR-3 ovarian
SF-539 CNS = system: SF-539 CNS
SK-MEL-5 melanoma = system: SK-MEL-5 melanoma
SF-268 CNS = system: SF-268 CNS
MDA-N = system: MDA-N
OVCAR-5 ovarian = system: OVCAR-5 ovarian
SK-MEL-28 melanoma = system: SK-MEL-28 melanoma
NCI-H522 lung = system: NCI-H522 lung
HCC-2998 colon = system: HCC-2998 colon
NCI-H226 lung = system: NCI-H226 lung
NCI/ADR-RES ovarian = system: NCI/ADR-RES ovarian
MDA-MB-231 breast = system: MDA-MB-231 breast

CC(C)C(NC(=O)OCC1c2ccccc2-c2ccccc21)C(=O)NC(CCC(=O)OC(C)(C)C)C(=O)OC(C)(C)C (centres undefined) (Fmoc-Val-Glu(OtBu)-OtBu; configuration not given here)
TGI (MALME-3M melanoma): > 100 µM | TGI (OVCAR-8 ovarian): > 100 µM | TGI (HOP-92 NSCLC): > 100 µM | TGI (OVCAR-3 ovarian): > 100 µM | TGI (SF-539 CNS): > 92 µM | TGI (SK-MEL-5 melanoma): > 100 µM | TGI (SF-268 CNS): > 100 µM | TGI (MDA-N): > 100 µM | TGI (OVCAR-5 ovarian): > 100 µM | TGI (SK-MEL-28 melanoma): > 100 µM | TGI (NCI-H522 lung): > 100 µM | TGI (HCC-2998 colon): > 100 µM | TGI (NCI-H226 lung): > 100 µM | TGI (NCI/ADR-RES ovarian): > 100 µM | TGI (MDA-MB-231 breast): > 100 µM

O=C(Nc1ccccc1)c1cc(S(=O)(=O)Nc2n[nH]c(=O)n2-c2ccccc2)c(S)cc1Cl
TGI (MALME-3M melanoma): > 100 µM | TGI (OVCAR-8 ovarian): > 100 µM | TGI (HOP-92 NSCLC): > 100 µM | TGI (OVCAR-3 ovarian): > 100 µM | TGI (SF-539 CNS): > 100 µM | TGI (SK-MEL-5 melanoma): > 100 µM | TGI (SF-268 CNS): > 100 µM | TGI (MDA-N): > 100 µM | TGI (OVCAR-5 ovarian): > 100 µM | TGI (SK-MEL-28 melanoma): > 100 µM | TGI (NCI-H522 lung): > 100 µM | TGI (HCC-2998 colon): > 100 µM | TGI (NCI-H226 lung): > 100 µM | TGI (NCI/ADR-RES ovarian): > 100 µM | TGI (MDA-MB-231 breast): > 100 µM

C=C(Cl)C(Cl)(CBr)CCC(Br)C(C)(C)Br (centres undefined)
TGI (MALME-3M melanoma): 29.6 µM | TGI (OVCAR-8 ovarian): 13.9 µM | TGI (HOP-92 NSCLC): 4.38 µM | TGI (OVCAR-3 ovarian): 6.65 µM | TGI (SF-539 CNS): 4.01 µM | TGI (SK-MEL-5 melanoma): 30.2 µM | TGI (SF-268 CNS): 10.7 µM | TGI (MDA-N): 21.2 µM | TGI (OVCAR-5 ovarian): 25.4 µM | TGI (SK-MEL-28 melanoma): 10.1 µM | TGI (NCI-H522 lung): 19.3 µM | TGI (HCC-2998 colon): 19.9 µM | TGI (NCI-H226 lung): 37.2 µM | TGI (NCI/ADR-RES ovarian): > 55.4 µM | TGI (MDA-MB-231 breast): 27.6 µM

CO/C=C/C=C(\C#N)C(=O)OC
TGI (MALME-3M melanoma): > 100 µM | TGI (OVCAR-8 ovarian): > 100 µM | TGI (HOP-92 NSCLC): > 100 µM | TGI (OVCAR-3 ovarian): > 100 µM | TGI (SF-539 CNS): > 100 µM | TGI (SK-MEL-5 melanoma): > 100 µM | TGI (SF-268 CNS): > 100 µM | TGI (MDA-N): > 100 µM | TGI (OVCAR-5 ovarian): > 100 µM | TGI (SK-MEL-28 melanoma): > 100 µM | TGI (NCI-H522 lung): > 100 µM | TGI (HCC-2998 colon): > 100 µM | TGI (NCI-H226 lung): > 100 µM | TGI (NCI/ADR-RES ovarian): > 100 µM | TGI (MDA-MB-231 breast): > 100 µM

O=C(O)c1ccccc1C(=O)NCC1S(=O)(=O)OCCOS1(=O)=O
TGI (MALME-3M melanoma): > 100 µM | TGI (OVCAR-8 ovarian): > 100 µM | TGI (HOP-92 NSCLC): > 100 µM | TGI (OVCAR-3 ovarian): > 100 µM | TGI (SF-539 CNS): > 100 µM | TGI (SK-MEL-5 melanoma): > 100 µM | TGI (SF-268 CNS): > 100 µM | TGI (MDA-N): > 100 µM | TGI (OVCAR-5 ovarian): > 100 µM | TGI (SK-MEL-28 melanoma): > 100 µM | TGI (NCI-H522 lung): > 100 µM | TGI (HCC-2998 colon): > 100 µM | TGI (NCI-H226 lung): > 100 µM | TGI (NCI/ADR-RES ovarian): > 100 µM | TGI (MDA-MB-231 breast): > 100 µM

COc1ccc(C(=O)C#Cc2cn(C3CC(O)C(CO)O3)c(=O)[nH]c2=O)cc1 (centres undefined)
TGI (MALME-3M melanoma): 22.7 µM | TGI (OVCAR-8 ovarian): > 100 µM | TGI (HOP-92 NSCLC): 45.9 µM | TGI (OVCAR-3 ovarian): 34.9 µM | TGI (SF-539 CNS): 45.1 µM | TGI (SK-MEL-5 melanoma): > 100 µM | TGI (SF-268 CNS): > 100 µM | TGI (MDA-N): > 100 µM | TGI (SK-MEL-28 melanoma): 50.5 µM | TGI (NCI-H522 lung): 24.5 µM | TGI (HCC-2998 colon): > 100 µM | TGI (NCI-H226 lung): > 100 µM | TGI (NCI/ADR-RES ovarian): > 100 µM | TGI (MDA-MB-231 breast): > 100 µM

CC(C)[N+]([O-])(CCCNc1c2ccccc2nc2cccc([N+](=O)[O-])c12)C(C)C
TGI (MALME-3M melanoma): 0.106 µM | TGI (OVCAR-8 ovarian): 0.628 µM | TGI (HOP-92 NSCLC): 0.196 µM | TGI (OVCAR-3 ovarian): 1.07 µM | TGI (SF-539 CNS): 0.24 µM | TGI (SK-MEL-5 melanoma): 0.0628 µM | TGI (SF-268 CNS): 3.14 µM | TGI (MDA-N): 0.137 µM | TGI (OVCAR-5 ovarian): 1.31 µM | TGI (SK-MEL-28 melanoma): 0.175 µM | TGI (NCI-H522 lung): 0.147 µM | TGI (HCC-2998 colon): 0.0227 µM | TGI (NCI-H226 lung): 2.56 µM | TGI (NCI/ADR-RES ovarian): 8.76 µM | TGI (MDA-MB-231 breast): 0.441 µM

Nc1nc(Cl)cc(NCC2(O)CCC2)n1
TGI (MALME-3M melanoma): > 100 µM | TGI (OVCAR-8 ovarian): > 100 µM | TGI (HOP-92 NSCLC): > 100 µM | TGI (OVCAR-3 ovarian): > 100 µM | TGI (SF-539 CNS): > 100 µM | TGI (SK-MEL-5 melanoma): > 100 µM | TGI (SF-268 CNS): > 100 µM | TGI (MDA-N): > 100 µM | TGI (OVCAR-5 ovarian): > 100 µM | TGI (SK-MEL-28 melanoma): > 100 µM | TGI (NCI-H522 lung): > 100 µM | TGI (HCC-2998 colon): > 100 µM | TGI (NCI-H226 lung): > 100 µM | TGI (NCI/ADR-RES ovarian): > 100 µM | TGI (MDA-MB-231 breast): > 100 µM

Cc1cc(NC2=CC(=O)C(=O)c3ccccc32)no1
TGI (MALME-3M melanoma): 5.92 µM | TGI (OVCAR-8 ovarian): 29.4 µM | TGI (HOP-92 NSCLC): 30.1 µM | TGI (OVCAR-3 ovarian): 14.1 µM | TGI (SF-539 CNS): 13.4 µM | TGI (SK-MEL-5 melanoma): 6.57 µM | TGI (SF-268 CNS): 31.2 µM | TGI (MDA-N): 3.34 µM | TGI (OVCAR-5 ovarian): 18.1 µM | TGI (SK-MEL-28 melanoma): 31.6 µM | TGI (NCI-H522 lung): 34.5 µM | TGI (HCC-2998 colon): 35.2 µM | TGI (NCI-H226 lung): 35.9 µM | TGI (NCI/ADR-RES ovarian): 15.6 µM | TGI (MDA-MB-231 breast): > 67.2 µM

CC(=O)O[C@@H]1C[C@]2(C(=O)c3ccccc3)C(=O)C(=O)S[C@]12c1ccccc1
TGI (MALME-3M melanoma): > 100 µM | TGI (OVCAR-8 ovarian): > 100 µM | TGI (HOP-92 NSCLC): > 100 µM | TGI (OVCAR-3 ovarian): > 100 µM | TGI (SF-539 CNS): 60.4 µM | TGI (SK-MEL-5 melanoma): > 100 µM | TGI (SF-268 CNS): > 100 µM | TGI (MDA-N): > 100 µM | TGI (OVCAR-5 ovarian): > 100 µM | TGI (SK-MEL-28 melanoma): > 100 µM | TGI (NCI-H522 lung): > 100 µM | TGI (HCC-2998 colon): 75.1 µM | TGI (NCI-H226 lung): > 100 µM | TGI (NCI/ADR-RES ovarian): > 100 µM | TGI (MDA-MB-231 breast): > 100 µM
